According to patent EP4800015A1, “AZABICYCLO DERIVATIVE AND PREPARATION METHOD THEREFOR, AND USE” (Zhejiang Hisun Pharmaceutical Co., Ltd., priority 2023, dated 2025):
pIC50: −log10 of the molar value. Read-outs that look alike come from different tables or passages of the source.

Molecular target: T1, recombinant human WRN (Homo sapiens, UniProt Q14191)
T1 construct: purchased BPS 101264
Experiment: Inhibition of WRN enzyme activity (ATPase), ADP-Glo Kinase Assay
Assay type: biochemical
Conditions: WRN protein 5 nM, Flap 0.1 nM, ATP 30 µM
Method in brief: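 ATPase activity was measured by ADP-Glo luminescence after a 10-min room-temperature reaction with 30 µM ATP and 0.1 nM Flap26 oligonucleotide substrate. The 5 nM WRN had first been exposed to compound (0.004–1000 nM) for 15 min in pH 7.5 Tris buffer with 2 mM MgCl2. IC50 values came from log-concentration regression against the DMSO control.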

T1 sequence (Q14191 whole entry): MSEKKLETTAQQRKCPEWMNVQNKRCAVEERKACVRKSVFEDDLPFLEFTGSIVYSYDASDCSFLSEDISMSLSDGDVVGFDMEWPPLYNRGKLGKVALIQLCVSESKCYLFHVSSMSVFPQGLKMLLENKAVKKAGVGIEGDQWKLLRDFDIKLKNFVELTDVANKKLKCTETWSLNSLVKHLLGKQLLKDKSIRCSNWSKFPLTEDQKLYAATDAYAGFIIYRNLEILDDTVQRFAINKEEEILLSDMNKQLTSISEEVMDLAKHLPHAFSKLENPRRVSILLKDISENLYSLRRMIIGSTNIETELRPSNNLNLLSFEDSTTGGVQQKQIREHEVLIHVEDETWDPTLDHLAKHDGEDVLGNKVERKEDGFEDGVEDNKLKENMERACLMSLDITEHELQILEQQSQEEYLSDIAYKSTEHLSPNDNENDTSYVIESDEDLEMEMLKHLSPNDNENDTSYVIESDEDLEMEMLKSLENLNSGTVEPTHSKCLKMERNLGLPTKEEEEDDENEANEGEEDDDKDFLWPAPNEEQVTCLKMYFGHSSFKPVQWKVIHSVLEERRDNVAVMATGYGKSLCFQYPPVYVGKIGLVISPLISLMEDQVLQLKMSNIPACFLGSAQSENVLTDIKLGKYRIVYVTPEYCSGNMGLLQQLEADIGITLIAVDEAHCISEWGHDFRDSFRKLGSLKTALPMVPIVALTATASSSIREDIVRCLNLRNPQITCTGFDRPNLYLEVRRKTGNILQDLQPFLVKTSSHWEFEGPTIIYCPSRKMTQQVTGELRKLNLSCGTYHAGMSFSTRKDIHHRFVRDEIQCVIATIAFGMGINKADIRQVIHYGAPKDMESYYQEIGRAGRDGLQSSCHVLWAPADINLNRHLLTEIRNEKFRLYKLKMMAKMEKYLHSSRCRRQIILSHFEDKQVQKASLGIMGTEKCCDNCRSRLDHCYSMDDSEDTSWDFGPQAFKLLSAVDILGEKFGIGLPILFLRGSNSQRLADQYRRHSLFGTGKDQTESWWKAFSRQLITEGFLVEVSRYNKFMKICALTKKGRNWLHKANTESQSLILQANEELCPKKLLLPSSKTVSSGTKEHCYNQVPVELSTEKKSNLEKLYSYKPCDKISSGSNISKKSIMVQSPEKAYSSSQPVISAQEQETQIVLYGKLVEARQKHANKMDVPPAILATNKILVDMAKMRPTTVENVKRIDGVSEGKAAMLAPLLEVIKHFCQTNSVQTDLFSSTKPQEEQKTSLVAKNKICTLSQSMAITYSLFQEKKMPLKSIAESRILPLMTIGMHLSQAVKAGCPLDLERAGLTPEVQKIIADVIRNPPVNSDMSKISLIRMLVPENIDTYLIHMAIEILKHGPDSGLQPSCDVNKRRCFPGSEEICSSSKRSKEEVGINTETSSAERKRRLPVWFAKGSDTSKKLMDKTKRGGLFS

Compound | pIC50 (read-out: IC50) | pIC50
CCc1c(N2CCN(C(=O)c3ncccc3O)CC2)c(=O)n2nc(-c3cc4ccccc4o3)nc2n1CC(=O)Nc1ccc(C(F)(F)F)cc1Cl [Example 75, 2-(2-(benzofuran-2-yl)-5-ethyl-6-(4-(3-hydroxypicolinoyl)piperazin-1-yl)-7-oxo-[1,2,4]triazolo[1 ,5-a]pyrimidin-4(7H)-yl)-N-(2-chloro-4-(trifluoromethyl)phenyl)acetamide] | 7.00 to 9.00 | –
CCc1c(N2CCN(C(=O)c3ncnc(C)c3O)CC2)c(=O)n2nc(C3=CC4COCC4C3)nc2n1CC(=O)Nc1ccc(S(F)(F)(F)(F)F)cc1 (stereo not drawn) [Example 189, 2-(5-ethyl-6-(4-(5-hydroxy-6-methylpyrimidine-4-carbonyl)piperazin-1-yl)-7-oxo-2-(3,3a,4,6a-tetrahydro-1H-cyclopenta[c]furan-5-yl)-[1,2,4]triazolo[1,5-a]pyrimidin-4(7H)-yl)-N-(4-(pentafluor o-λ^6-sulfaneyl)phenyl)acetamide] | 7.00 to 9.00 | –
CCc1c(N2CCN(C(=O)c3ccncc3O)CC2)c(=O)n2nc(C3=CCCCCC3)nc2n1CC(=O)Nc1ccc(C(F)(F)F)cc1F [Example 44, 2-(2-(cyclohept-1-en-1-yl)-5-ethyl-6-(4-(3-hydroxyisonicotinoyl)piperazin-1-yl)-7-oxo-[1,2,4]triazolo[1,5-a]pyrimidin-4(7H)-yl)-N-(2-fluoro-4-(trifluoromethyl)phenyl)acetamide] | 7.00 to 9.00 | –
CCc1c(N2CCN(C(=O)c3ncnc(C)c3O)CC2)c(=O)n2nc(-c3ccc4c(c3)CCO4)nc2n1CC(=O)Nc1ccc(SC(F)F)cc1Cl [Example 148, N-(2-chloro-4-((difluoromethyl)thio)phenyl)-2-(2-(2,3-dihydrobenzofuran-5-yl)-5-ethyl-6-(4-(5-hydroxy-6-methylpyrimidine-4-carbonyl)piperazin-1-yl)-7-oxo-[1,2,4]triazolo[1,5-a]pyrimidin-4(7 H)-yl)acetamide] | 7.00 to 9.00 | –
CCc1c(N2CCN(C(=O)c3ncnc(C)c3O)CC2)c(=O)n2nc(C3=CC4C/C(=N/OC)CC4C3)nc2n1CC(=O)Nc1ccc(C(F)(F)F)cc1Cl (stereo not drawn) [Example 122, (E)-N-(2-chloro-4-(trifluoromethyl)phenyl)-2-(5-ethyl-6-(4-(5-hydroxy-6-methylpyrimidine-4-carbonyl)piperazin-1-yl)-2-(5-(methoxyimino)-1,3a,4,5,6,6a-hexahydropentalen-2-yl)-7-oxo-[1,2,4]triazolo[1,5-a]pyrimidin-4(7H)-yl)acetamide] | 7.00 to 9.00 | –
CCc1c(N2CCN(C(=O)c3ccncc3O)CC2)c(=O)n2nc(C3=CCCCCC3)nc2n1CC(=O)Nc1ccc(C(F)(F)F)cc1C [Example 42, 2-(2-(cyclohept-1-en-1-yl)-5-ethyl-6-(4-(3-hydroxyisonicotinoyl)piperazin-1-yl)-7-oxo-[1,2,4]triazolo[1,5-a]pyrimidin-4(7H)-yl)-N-(2-methyl-4-(trifluoromethyl)phenyl)acetamide] | 7.00 to 9.00 | –
CCc1c(N2CCN(C(=O)c3ncnc(C)c3O)CC2)c(=O)n2nc(-c3ccc4nc[nH]c4c3)nc2n1CC(=O)Nc1ccc(C(F)(F)F)cc1Cl [Example 138, 2-(2-(1H-benzo[d]imidazol-6-yl)-5-ethyl-6-(4-(5-hydroxy-6-methylpyrimidine-4-carbonyl)piperazin-1-yl)-7-oxo-[1,2,4]triazolo[1,5-a]pyrimidin-4(7H)-yl)-N-(2-chloro-4-(trifluoromethyl)phenyl) acetamide] | – | 7.00 to 9.00
CCc1c(N2CCN(C(=O)c3ncnc(C)c3O)CC2)c(=O)n2nc(C3=CCCCCC3)cc2n1CC(=O)Nc1ccc(S(F)(F)(F)(F)F)cc1 [Example 59, 2-(2-(cyclohept-1-en-1-yl)-5-ethyl-6-(4-(5-hydroxy-6-methylpyrimidine-4-carbonyl)piperazin-1-yl)-7-oxopyrazolo[1,5-a]pyrimidin-4(7H)-yl)-N-(4-(pentafluoro-λ^6-sulfaneyl)phenyl)acetamide] | 7.00 to 9.00 | –
CCc1c(N2CCN(C(=O)c3ncncc3O)CC2)c(=O)n2nc(C3=CC4COCC4C3)nc2n1CC(=O)Nc1ccc(C(F)(F)F)cc1Cl (stereo not drawn) [Example 160, N-(2-chloro-4-(trifluoromethyl)phenyl)-2-(5-ethyl-6-(4-(5-hydroxypyrimidine-4-carbonyl)piperazin-1-yl)-7-oxo-2-(3,3a,4,6a-tetrahydro-1H-cyclopenta[c]furan-5-yl)-[1,2,4]triazolo[1,5-a]pyrimidin-4(7H)-yl)acetamide] | 7.00 to 9.00 | –
CCc1c(N2CCN(C(=O)c3ncnc(C)c3O)CC2)c(=O)n2nc(N3CCC3)nc2n1CC(=O)Nc1ccc(C(F)(F)F)cc1Cl [Example 7, 2-(2-(azetidin-1-yl)-5-ethyl-6-(4-(5-hydroxy-6-methylpyrimidine-4-carbonyl)piperazin-1-yl)-7-oxo-[1,2,4]triazolo[1,5-a]pyrimidin-4(7H)-yl)-N-(2-chloro-4-(trifluoromethyl)phenyl)acetamide] | 7.00 to 9.00 | –
CCc1c(N2CCN(C(=O)c3ncnc(C)c3O)CC2)c(=O)n2nc(C(C)=C3CCC3)nc2n1CC(=O)Nc1ccc(C(F)(F)F)cc1Cl [Example 60, N-(2-chloro-4-(trifluoromethyl)phenyl)-2-(2-(1-cyclobutylideneethyl)-5-ethyl-6-(4-(5-hydroxy-6-methylpyrimidine-4-carbonyl)piperazin-1-yl)-7-oxo-[1,2,4]triazolo[1,5-a]pyrimidin-4(7H)-yl)ace tamide] | 7.00 to 9.00 | –
CCc1c(N2CCN(C(=O)c3ncnc(C)c3O)CC2)c(=O)n2nc(-c3ccn4ccnc4c3)nc2n1CC(=O)Nc1ccc(C(F)(F)F)cc1Cl [Example 136, N-(2-chloro-4-(trifluoromethyl)phenyl)-2-(5-ethyl-6-(4-(5-hydroxy-6-methylpyrimidine-4-carbonyl)piperazin-1-yl)-2-(imidazo[1,2-a]pyridin-7-yl)-7-oxo-[1,2,4]triazolo[1,5-a]pyrimidin-4(7H)-yl)acetamide] | 7.00 to 9.00 | –
CCc1c(N2CCN(C(=O)c3ncnc(C)c3O)CC2)c(=O)n2nc(-c3coc4ccccc34)nc2n1CC(=O)Nc1ccc(C(F)(F)F)cc1Cl [Example 35, 2-(2-(benzofuran-3-yl)-5-ethyl-6-(4-(5-hydroxy-6-methylpyrimidine-4-carbonyl)piperazin-1-yl)-7-oxo-[1,2,4]triazolo[1,5-a]pyrimidin-4(7H)-yl)-N-(2-chloro-4-(trifluoromethyl)phenyl) acetamide] | – | 7.00 to 9.00
CCc1c(N2CCN(C(=O)c3ncnc(C)c3O)CC2)c(=O)n2nc(-c3ccc4ccoc4c3)cc2n1CC(=O)Nc1ccc(C(F)(F)F)cc1Cl [Example 57, 2-(2-(benzofuran-6-yl)-5-ethyl-6-(4-(5-hydroxy-6-methylpyrimidine-4-carbonyl)piperazin-1-yl)-7-oxopyrazolo[1,5-a]pyrimidin-4(7H)-yl)-N-(2-chloro-4-(trifluoromethyl)phenyl)acetamide] | 7.00 to 9.00 | –
CCc1c(N2CCN(C(=O)c3ncnc(C)c3O)CC2)c(=O)n2nc(-c3cccc4occc34)nc2n1CC(=O)Nc1ccc(C(F)(F)F)cc1Cl [Example 124, 2-(2-(benzofuran-4-yl)-5-ethyl-6-(4-(5-hydroxy-6-methylpyrimidine-4-carbonyl)piperazin-1-yl)-7-oxo-[1,2,4]triazolo[1,5-a]pyrimidin-4(7H)-yl)-N-(2-chloro-4-(trifluoromethyl)phenyl)acetamide] | 7.00 to 9.00 | –
